According to patent US20250135009A1, “INTRATYMPANIC DRUG CONTROLLED RELEASE-TYPE FORMULATION COMPRISING N-ACYLATED GLYCOL CHITOSAN” (The Industry & Academic Cooperation in Chungnam National …, priority 2021, published 2025):
In brackets after ≈: the same amount, converted by molar mass.

Legend:
[1] = In vitro drug release in PBS using a dialysis membrane; type: physicochemical; settings: HGC 3.0 wt %, drug 2.0 wt % formulations and drug controls
Experimental: The in vitro drug release profiles of the thermogel formulations were examined in PBS (pH 7.4) using a dialysis membrane. […] Then, the dialysis bags were immersed in 50 mL of PBS and incubated in a shaking water bath (SI-600R, Jeio Tech, Seoul, Korea) at 37° C. and 100 rpm or less.
After incubation, 10 ml of the release medium was taken out and the same amount of fresh medium was added again. The collected samples were analyzed by UV-Vis measurement. The DEX release profile was determined by measuring the UV absorbance of DEX at 242 nm. The experiment was performed in triplicate and data are expressed as mean±SD.
023 microspheres loaded with dexamethasone were mixed with 4 wt % of HGC hydrogel. An in vitro drug release test was conducted in a PBS (pH 7.4, 50 ml) environment in the same manner as in Example 4. Sampling was performed at days 0, 0.5, 1, 2, 4, 7, 14, 21, 28, and 30.
Dexamethasone-loaded 061 or 062 microspheres were mixed with 4 wt % of HGC hydrogel, and an in vitro drug release test therefor was conducted in the same manner as the test for the 023.

physchem = assay: physchem
Experimental: Changes in water solubility of dexamethasone (DEX) with changes in HGC concentration were analyzed. An excessive amount of DEX was added to 3 mL of an aqueous solution of HGC (PBS, HGC concentration=0 to 4%, w/v). The samples were then stirred for 30 minutes and incubated in a shaking water bath (100 rpm, 37° C.) for 24 hours. All the samples were filtered through a syringe filter (0.8 μm) to remove precipitates and then analyzed using a UV-visible spectrophotometer (V-730, JASCO, Korea). The solubility value of DEX was determined using a standard curve of various DEX concentrations obtained at 242 nm. The test was repeated three times.

Row | Compound | drug release behavior (Example 8-2) [1] | increase of solubility of dexamethasone (physchem) | solubility at 24 h (physchem; 37 °C, aqueous with cosolvent or surfactant or cyclodextrin, thermodynamic from solid) | solubility of dexamethasone in PBS (physchem; HGC 0 wt %, 37° C., 24 hours)
1 | C[C@@H]1C[C@H]2[C@@H]3CCC4=CC(=O)C=C[C@]4(C)[C@@]3(F)[C@@H](O)C[C@]2(C)[C@@]1(O)C(=O)COP(=O)([O-])[O-].[Na+].[Na+] [DSP, DEX phosphate disodium salt] | completely released the drug quickly within a few hours |  |  | 
2 | C[C@@H]1C[C@H]2[C@@H]3CCC4=CC(=O)C=C[C@]4(C)[C@@]3(F)[C@@H](O)C[C@]2(C)[C@@]1(O)C(=O)CO [DEX, Dexamethasone] |  | about 4 times | 221 µg/mL (≈ 563 µM) | 64 µg/mL
